{"source": "paper PMC12074917", "about": "“Molecular pharmacokinetic mechanism of JBP485 against aristolochic acid I (AAI) -induced nephrotoxicity” (Frontiers in Pharmacology, 2025)", "system": "rat kidney slices", "assay": "In vitro uptake of AAI in kidney slices", "assay_type": "in vitro ADME", "conditions": "AAI 1 μM, JBP485 500 μM", "description": "Rat kidneys were cut into slices with a ZQP-86 tissue slicer (Zhixin Co. Ltd., China), as previously described ([Wang et al., 2014]). After preincubation for 3 min at 37°C, the kidney slices were transferred to 24-well culture plates containing 1 mL of fresh oxygenated buffer with AAI (1 μM) and/or JBP485 (500 μM) and further incubated at 37 °C with gentle shaking. After incubation for 5, 15, and 30 min, the slices were washed with ice-cold Hanks’ balanced salt solution (pH 7.5). The amount of AAI accumulated in the homogenized kidneys was determined by LC–MS/MS.\nThe concentrations of the test compounds in plasma, urine, and cell lysates were determined using an Agilent HP1200 liquid chromatography system (Agilent Technology Inc., SC, CA, United States) and an API 3200 triple-quadrupole mass spectrometer (Applied Biosystems, SC, CA, United States). After protein precipitation using acetonitrile, the analyte was separated on a Hypersil BDS C18 column. The mobile phase consisted of acetonitrile and water containing 0.1% (v/v) formic acid (80:20, v/v). The flow rate was 0.4 mL/min. The mass spectrometer was equipped with an electrospray ionization (ESI) source. Data were acquired in positive ion mode and dynamic multiple reaction monitoring (MRM) mode. […]", "data": [{"smiles": "O=C1N[C@@H](CO)C(=O)N2C[C@H](O)C[C@@H]12", "note": "(relative stereo) [JBP485, cyclo-trans-4-L-hydroxyprolyl-L-serine]", "values": [{"measurement": "AAI uptake in kidney slices", "value": "inhibited"}]}]}
